# Literature values in US20160311746A1, “METHOD OF PRODUCING ADIPIC ACID OR AT LEAST A RESULTANT PRODUCT THEREOF” (BASF SE, priority 2013, published 2016).
# Details: at about 47° C.
structure (smiles),measurement,value
"O=C(O)/C=C\C=C/C(=O)O [cis,cis-muconic acid]",solubility in water,about 1 g per 100 g of water
